Measurements as given in patent US8143252B2, “Tetrahalogenated compounds useful as inhibitors of angiogenesis” (The United States of America as represented by the …, priority 2006, dated 2012).
Like-named read-outs stand apart in the source and are kept apart here. Marks after values point to notes of the source that are not given here.

How the values were obtained:
[1] = test system: rat aortic ring microvessel outgrowth; assay: rat aortic ring microvessel assay; format: cell-based; conditions: for activity at 50 µM: Rattus norvegicus, 96 h, read-out: Average of Growth [%]
Experimental: The anti-angiogenic activity of the compounds was tested following the procedure described in Lepper, E. R., Ng, S. S., Gutschow, M., Weiss, M., Hauschildt, S., Hecker, T. K., Luzzio, F. A., Eger, K., Figg, W. D., J. Med. Chem. 2004, Comparative molecular field analysis and comparative molecular similarity indices analysis of thalidomide analogues as angiogenesis inhibitors; 47(9):2219-27. Twelve-well tissue culture-grade plates were covered with 250 μL Matrigel and allowed to gel for 30 to 45 minutes at 37° C., 5% CO2. Thoracic aortas were excised from 6- to 8-week-old male Sprague-Dawley rats, and the fibroadipose tissue was removed. The aortas were cut into 1 mm-long cross-sections and placed on the Matrigel coated wells. They were then covered with an additional 250 μL Matrigel and allowed to gel for 30 to 45 minutes at 37° C., 5% CO2. The rings were cultured for 24 hours in 1 mL EBM-2. After 24 hours, the medium was removed and replaced with 1 mL EBM-2 (Clonetics Corp.), supplemented with fetal bovine serum (2%), ascorbic acid, hydrocortisone, heparin, and amphotericin. Each selected compound was dissolved in DMSO and added to the EBM-2, before it was added to the well. Each selected compound was administered daily for four days at a daily dosage of 50 μM. Photos were taken on Day 5. DMSO alone was used as a control baseline. Carboxyamidotriazole (“CAI” from NCI, Bethesda, Md.) was used as a positive control. The vascular outgrowth was quantified using Adobe Photoshop (Adobe Systems, Inc., San Jose, Calif.) and the results are provided below in Tables 1 and 2.

[2] = test system: rat aortic ring microvessel outgrowth; conditions: 50 μM; data reported in Lepper et al., J. Med. Chem. 2004; cited from earlier work
[3] = test system: HUVEC; assay: HUVEC Proliferation Assay, CCK-8 counting; format: cell-based, human; conditions: 24 h incubation
Experimental: (§1) Human umbilical vein endothelial cells (HUVECs (Clonetics)) were maintained in EGM-II, supplemented with a Bullet-Kit (Clonetics). Human prostate cancer cell lines (PC3s (ATCC)) were maintained in RPMI-1640, supplemented with 10% fetal bovine serum. Both cell lines were incubated at 37° C., in a 5% CO2 atmosphere. Cells were seeded onto 12-well plates at a density of 30,000 cells/well and allowed to attach overnight at 37° C. and 5% CO2. The culture medium was then aspirated, and fresh culture medium containing either the vehicle (0.5% DMSO) or drug solution in 0.5% DMSO was added. After 24 hours, media was removed, then cells were trypsinized and counted with a hemocytometer, using trypan blue to exclude non-viable cells. Each compound was tested in triplicate and the cell count was normalized to the controls, to give the % growth. The results are shown below in Tables 3 and 4, and in FIGS. 5 and 6.
(§2) The experiments for the data in Table 5 was performed as described above, except that the Table 5 experiments were performed in […] (at two concentrations), and the CCK-8 Cell Counting Kit (Dajindo Technologies) was utilized after treating for 24 hours.

[4] = test system: PC3; assay: PC3 Proliferation Assay, CCK-8 counting; format: cell-based, human; conditions: 24 h incubation
Experimental: as §1, §2

[5] = test system: Human prostate cancer cell lines (PC3s); assay: PC3 Proliferation Assay (hemocytometer count, trypan blue); format: cell-based; conditions: 24 hours, cell count normalized to DMSO control, concentration not given
Experimental: as §1

[6] = test system: Human umbilical vein endothelial cells (HUVECs); assay: HUVEC Proliferation Assay (hemocytometer count, trypan blue); format: cell-based; conditions: 24 hours, cell count normalized to DMSO control, concentration not given
Experimental: as §1

CC1(N2C(=O)c3c(F)c(F)c(F)c(F)c3C2=O)C(=O)NC(=O)N(C2CCCCC2)C1=O (racemic) [Compound 19h, 1-Cyclohexyl-5-methyl-5-(4,5,6,7-tetrafluoro-1,3-dihydro-1,3-dioxo-2H-isoindol-2-yl)-2,4,6(1H,3H,5H)-pyrimidinetrione]
activity at 50 µM [1]: 11.8%

CCC1(NC(=O)c2cc(F)c(F)c(F)c2F)C(=O)NC(=O)N(C2CCCCC2)C1=O (racemic) [Compound 20i, N-(1-Cyclohexyl-5-ethyl-hexahydro-2,4,6-trioxo-5-pyrimidinyl)-2,3,4,5-tetrafluorobenzamide]
activity at 50 µM [1]: 9.73%

CCC1(N2C(=O)c3c(F)c(F)c(F)c(F)c3C2=O)C(=O)NC(=O)N(c2ccccc2)C1=O (stereo not drawn) [Compound 19k]
Average of Growth [%] [2]: 24.25^[a] %

CCC1(N2C(=O)c3c(F)c(F)c(F)c(F)c3C2=O)C(=O)NC(=O)N(C2CCCCC2)C1=O (racemic) [Compound 19i, 1-Cyclohexyl-5-ethyl-5-(4,5,6,7-tetrafluoro-1,3-dihydro-1,3-dioxo-2H-isoindol-2-yl)-2,4,6(1H,3H,5H)-pyrimidinetrione]
activity at 50 µM [1]: 11.2%

CCN1C(=O)NC(=O)C(CC)(N2C(=O)c3c(F)c(F)c(F)c(F)c3C2=O)C1=O (racemic) [Compound 19d, 1,5-Diethyl-5-(4,5,6,7-tetrafluoro-1,3-dihydro-1,3-dioxo-2H-isoindol-2-yl)-2,4,6-(1H,3H,5H)-pyrimidinetrione]
activity at 50 µM [1]: 0.13%

CCN1C(=O)NC(=O)C(C)(N2C(=O)c3c(F)c(F)c(F)c(F)c3C2=O)C1=O (racemic) [Compound 19f, 1-Ethyl-5-methyl-5-(4,5,6,7-tetrafluoro-1,3-dihydro-1,3-dioxo-2H-isoindol-2-yl)-2,4,6(1H,3H,5H)-pyrimidinetrione]
HUVEC Growth (5 uM) (Control = 100%) Mean [3]: 27.17% | HUVEC Growth (10 uM) (Control = 100%) Mean [3]: 9.00% | activity at 50 µM [1]: 23.8% | PC3 Growth (5 uM) (Control = 100%) Mean [4]: 25.95% | PC3 Growth (10 uM) (Control = 100%) Mean [4]: 10.94%

CCC1(NC(=O)c2cc(F)c(F)c(F)c2F)C(=O)NC(=O)N(C(C)C)C1=O (racemic) [Compound 20g, N-(5-Ethyl-hexahydro-1-isopropyl-2,4,6-trioxo-5-pyrimidinyl)-2,3,4,5-tetrafluorobenzamide]
activity at 50 µM [1]: 0.1% | Average of Growth [%] [5]: 38.46% | Average of Growth [%] [6]: 62.03%

CCCN1C(=O)NC(=O)C(CC)(N2C(=O)c3c(F)c(F)c(F)c(F)c3C2=O)C1=O (racemic) [Compound 19e, 5-Ethyl-1-propyl-5-(4,5,6,7-tetrafluoro-1,3-dihydro-1,3-dioxo-2H-isoindol-2-yl)-2,4,6(1H,3H,5H)-pyrimidinetrione]
HUVEC Growth (5 uM) (Control = 100%) Mean [3]: 1.68% | HUVEC Growth (10 uM) (Control = 100%) Mean [3]: 2.14% | activity at 50 µM [1]: 0.12% | PC3 Growth (5 uM) (Control = 100%) Mean [4]: 31.02% | PC3 Growth (10 uM) (Control = 100%) Mean [4]: 9.67%

CCN1C(=O)NC(=O)C(C)(NC(=O)c2cc(F)c(F)c(F)c2F)C1=O (racemic) [Compound 20f, N-(1-Ethyl-hexahydro-5-methyl-2,4,6-trioxo-5-pyrimidinyl)-2,3,4,5-tetrafluorobenzamide]
activity at 50 µM [1]: 16.8%

NC(=O)c1nnn(Cc2cc(Cl)c(C(=O)c3ccc(Cl)cc3)c(Cl)c2)c1N [CAI, Carboxyamidotriazole, reference compound]
activity at 50 µM ([1]; phthalimides 19, 50 μM daily for four days, DMSO control = 100): 4.03% | Average of Growth [%] ([1]; tetrafluorobenzamides 20, 50 μM daily for four days, DMSO control = 100): 4.03%

CC1(NC(=O)c2cc(F)c(F)c(F)c2F)C(=O)NC(=O)N(C2CCCCC2)C1=O (racemic) [Compound 20h, N-(1-Cyclohexyl-hexahydro-5-methyl-2,4,6-trioxo-5-pyrimidinyl)-2,3,4,5-tetrafluorobenzamide]
activity at 50 µM [1]: 16.5% | Average of Growth [%] [5]: 34.52% | Average of Growth [%] [6]: 91.14%

CCC1(NC(=O)c2cc(F)c(F)c(F)c2F)C(=O)NC(=O)N(c2ccccc2)C1=O (racemic) [Compound 20k, N-(5-Ethyl-hexahydro-2,4,6-trioxo-1-phenyl-5-pyrimidinyl)-2,3,4,5-tetrafluorobenzamide]
activity at 50 µM [1]: 18.1%

CCCN1C(=O)NC(=O)C(C)(NC(=O)c2cc(F)c(F)c(F)c2F)C1=O (racemic) [Compound 20b, N-(Hexahydro-5-methyl-2,4,6-trioxo-1-propyl-5-pyrimidinyl)-2,3,4,5-tetrafluorobenzamide]
activity at 50 µM [1]: 23.1%

CCN1C(=O)NC(=O)C(CC)(NC(=O)c2cc(F)c(F)c(F)c2F)C1=O (racemic) [Compound 20d, N-(1,5-Diethyl-hexahydro-2,4,6-trioxo-5-pyrimidinyl)-2,3,4,5-tetrafluorobenzamide]
HUVEC Growth (5 uM) (Control = 100%) Mean [3]: 11.46% | HUVEC Growth (10 uM) (Control = 100%) Mean [3]: 14.53% | activity at 50 µM [1]: 31.1% | PC3 Growth (10 uM) (Control = 100%) Mean [4]: 87.73%

CCC1(N2C(=O)c3c(F)c(F)c(F)c(F)c3C2=O)C(=O)NC(=O)N(C(C)C)C1=O (racemic) [Compound 19g, 5-Ethyl-1-isopropyl-5-(4,5,6,7-tetrafluoro-1,3-dihydro-1,3-dioxo-2H-isoindol-2-yl)-2,4,6(1H,3H,5H)-pyrimidinetrione]
activity at 50 µM [1]: 0.13% | Average of Growth [%] [5]: 1.50%

CC(C)N1C(=O)NC(=O)C(C)(N2C(=O)c3c(F)c(F)c(F)c(F)c3C2=O)C1=O (racemic) [Compound 19c, 1-Isopropyl-5-methyl-5-(4,5,6,7-tetrafluoro-1,3-dihydro-1,3-dioxo-2H-isoindol-2-yl)-2,4,6(1H,3H,5H)-pyrimidinetrione]
activity at 50 µM [1]: 0.14% | Average of Growth [%] [5]: 3.75%

CN1C(=O)NC(=O)C(C)(N2C(=O)c3c(F)c(F)c(F)c(F)c3C2=O)C1=O (racemic) [Compound 19a, 1,5-Dimethyl-5-(4,5,6,7-tetrafluoro-1,3-dihydro-1,3-dioxo-2H-isoindol-2-yl)-2,4,6-(1H,3H,5H)-pyrimidinetrione]
activity at 50 µM [1]: 0.12%

CN1C(=O)NC(=O)C(C)(NC(=O)c2cc(F)c(F)c(F)c2F)C1=O (racemic) [Compound 20a, N-(Hexahydro-1,5-dimethyl-2,4,6-trioxo-5-pyrimidinyl)-2,3,4,5-tetrafluorobenzamide]
activity at 50 µM [1]: 58.3%

CCCN1C(=O)NC(=O)C(CC)(NC(=O)c2cc(F)c(F)c(F)c2F)C1=O (racemic) [Compound 20e, N-(5-Ethyl-hexahydro-2,4,6-trioxo-1-propyl-5-pyrimidinyl)-2,3,4,5-tetrafluorobenzamide]
activity at 50 µM [1]: 0.19% | Average of Growth [%] [5]: 26.27% | Average of Growth [%] [6]: 24.05%

CCCN1C(=O)NC(=O)C(C)(N2C(=O)c3c(F)c(F)c(F)c(F)c3C2=O)C1=O (racemic) [Compound 19b, 5-Methyl-1-propyl-5-(4,5,6,7-tetrafluoro-1,3-dihydro-1,3-dioxo-2H-isoindol-2-yl)-2,4,6(1H,3H,5H)-pyrimidinetrione]
activity at 50 µM [1]: 0.13% | Average of Growth [%] [5]: 1.50%

CC(C)N1C(=O)NC(=O)C(C)(NC(=O)c2cc(F)c(F)c(F)c2F)C1=O (racemic) [Compound 20c, N-(Hexahydro-1-isopropyl-5-methyl-2,4,6-trioxo-5-pyrimidinyl)-2,3,4,5-tetrafluorobenzamide]
activity at 50 µM [1]: 5.63%
